Experimental data reported in patent US20150152070A1, “METHODS OF PEST CONTROL IN SOYBEAN” (Syngenta Participations AG, priority 2012, published 2015).

System: Euschistus heros (Neotropical Brown Stink Bug)
Assay: Euschistus heros (Neotropical Brown Stink Bug) contact/feeding activity on sprayed soybean plants
Format: in vivo
Conditions: comparative example, mortality 5 days after infestation
Protocol: Euschistus heros (Neotropical Brown Stink Bug) (Contact/Feeding Activity)
2 week old soybean plants are sprayed in a turn table spray chamber with the diluted spray solutions. After drying, 2 soybean seeds are added and plants are infested with 10 N-2 nymphs of the neotropical brown stink bug Euschistus heros in plastic test boxes. Boxes are incubated in a climate chamber at 25° C. and 60% RH. Evaluation is done 5 days after infestation on mortality.

SMILES	Control/% (application rate 3.0 ppm) [%]	Control/% (application rate 12.5 ppm) [%]	Control/% (application rate 50 ppm) [%]
O=C(NCC(F)(F)F)N1CCc2cc(C3=NOC(c4cc(Cl)cc(Cl)c4)(C(F)(F)F)C3)ccc21 (stereo not drawn) [Reference compound]	0	0	5
O=C(CC(F)(F)F)NC1CCc2cc(C3=NOC(c4cc(Cl)cc(Cl)c4)(C(F)(F)F)C3)ccc21 (stereo not drawn) [Compound of the invention]	75	100	100
